Entries after “also recorded” stand apart in the source; their conditions may differ. In the oligonucleotide strings, read from the 5' end, every base follows the letter of its sugar. An asterisk marks phosphorothioate; unmarked linkages are phosphodiester. Other units and linkages are bracketed, terminal groups are in braces. A string of capitals states the bases alone. d = 2'-deoxy (DNA)

For the first data set, the system named is CD4+ Treg cells. Put plainly: Pretreatment of Treg cells, then proliferation assay with naive CD4+ T cells (without DCs). Format: cell-based, human. Conditions: Treg cells pretreated 3 days, washed, then mixed with naive CD4+ T cells. How it is done: C. Pretreatment of Treg cells: 1×10^6 Treg cells were cultured in medium containing CpG-A (3 ug/ml), CpG-B (3 ug/ml), LPS (100 ng/ml), TNF.-α (20 ng/ml), IFN-α (100 ng/ml) or IL-6 (100 ng/ml) for 3 days. After three washes, the pretreated Treg cells were cultured with näive CD4^+ T cells in anti-CD3 mAb-coated plates (without DCs) to determine their suppressive function. After 56 h of culture, [3H]thymidine was added at a final concentration of 1 uCi/well, and cultured for an additional 16 h. The incorporation of [^3H]thymidine was measured with a liquid scintillation counter.
To exclude the possibility that the purified naive CD4^+ T cells might have been contaminated with a small number of monocytes or DCs, cultured CD4^+ Treg cells (100% purity) were pretreated with CpG-A (SEQ ID NO: 1) for 3 days. After three washes, the pretreated CD4^+ Treg cells were mixed with naive CD4^+ T cells in anti-CD3 antibody-coated plates to evaluate their ability to suppress the proliferation of naive CD4^+ T cells.
To determine whether the CpG motif in CpG A confers the ability to reverse the suppressive function of CD4^+ Treg cells, CD4^+ Treg cell lines were pretreated for 3 days with CpG-A (SEQ ID NO: 1), non-CpG-A (CG changed to GC in CpG-A; SEQ ID NO: 3), CpG B (SEQ ID NO: 2) or non-CpG-B (CG changed to GC in CpG-B; SEQ ID NO: 4), and used them in proliferation assays following extensive washes.
Treg cells were pretreated with Poly-G2 (SEQ ID NO: 15) in different concentrations of chloroquine to examine whether acidification is required for the function of guanosine containing oligonucleotides. After extensive washes, the pretreated Treg cells were used for functional assays.
Regarding “CpG-B: CpG-B oligonucleotide, ligand for TLR9 (DNA GGGGGAGCATGCTGCGGGGG; listed as DNA, chemistry not given here)”, the “reversal of suppressive function of CD4+ Treg cells after pretreatment” value is reported as “lacked any discernible effect”.

As to “non-CpG-B: CG changed to GC in CpG-B (DNA TGCTGCTTTTGTGCTTTTGTGCTT; listed as DNA, chemistry not given here)”, the “reversal of suppressive function of CD4+ Treg cells after pretreatment” value was “lacked any discernible effect”.

The data set is the same for the next values; noted with them: pretreatment together with chloroquine.
Regarding “Poly-G2: guanosine containing oligonucleotide (DNA AAGGA; listed as DNA, chemistry not given here)”, the “reversal effect with Treg cells pretreated in different concentrations of chloroquine” value is recorded as “decreased with increasing concentrations of chloroquine”.

For another data set, the system named is CD4+ Treg cells (Treg102, Treg164). Nature of the data set: Proliferation assay without DCs: Treg suppression of naive CD4+ T cell proliferation, anti-CD3-coated plates. Format: cell-based, human. Conditions: absence of DCs; anti-CD3-coated plates; oligonucleotides 3 ug/ml in medium. An excerpt: Establishing Treg cell lines and purifying natural CD4^+ CD25^+ Treg cells CD4^+ Treg clones were established from CD4^+ tumor-infiltrating lymphocytes (TIL102 and TIL164) and maintained in RPMI 1640 medium containing 10% human AB serum and recombinant IL-2 (300 IU/ml) using methods well known in the art (See, e.g., H. Y. Wang et al., Immunity 20, 107-118 (2004)). Treg clones derived from TIL102 or TIL164 cells were pooled and designated Treg102 or Treg164. Naturally occurring CD4^+ CD25^+ Treg cells were obtained by sorting CD4^+ T cell populations from fresh PBMCs after staining with anti-CD4 and anti-CD25 antibodies. To obtain optimal expansion, the OKT3 expansion method was performed using methods well known in the art (See, e.g., H. Y. Wang et al., Immunity 20, 107-118 (2004)). T cell clones were maintained at a low IL-2 concentration (300 IU/ml). Melanoma cell lines and EBV-transformed B-cell lines used in this study were cultured in RPMI 1640 medium containing 10% FCS. Human embryonic kidney (HEK) 293 and Epstein-Barr virus (EBV)-transformed B cell lines were maintained in RPMI 1640 with 10% fetal calf serum (FCS).
B. Proliferation assay without DCs: 1×10^5 näive CD4 T cells were cultured with regulatory T cells at different ratios (1: 0.2, 1:0.1 and 1:0.05) in anti-CD3 mAb-coated (2 ug/ml) 96-well plates in the presence or absence of the following TLR ligands or cytokines: CpG-A (3 ug/ml), CpG-B (3 ug/ml), LPS (100 ng/ml), TNF.-α (20 ng/ml), IFN-α (100 ng/ml), or IL-6 (100 ng/ml). After 56 h of culture, [3H]thymidine was added at a final concentration of 1 uCi/well, followed by an additional 16 h of culture. The incorporation of [^3H]thymidine was measured with a liquid scintillation counter.
Näive CD4^+ T cell proliferation experiments were performed similar to those in FIG. 1A, but in the absence of DCs. […] The reversal effect of CpG-A (SEQ ID NO: 1) contrasts with the failure of CpG-B (SEQ ID NO: 2), LPS, TNF-α, IL-6 or IFN-α to block the suppressive activity of CD4^+ Treg cells against naive CD4^+ T cells (FIG. 1B).
To further define the CpG-A (SEQ ID NO: 1) sequences responsible for the observed reversal effect, CpG-NG (SEQ ID NO: 5) and Poly-G10 (SEQ ID NO: 6), were tested for their ability to reverse the suppressive function of Treg cells. Naive CD4^+ T cells were mixed with CD4^+ Treg cells in anti-CD3 antibody-coated 96-wells with 200 μl of medium containing CpG-NG (SEQ ID NO: 5), CpG-A (SEQ ID NO: 1) or Poly-G10 (SEQ ID NO: 6). The proliferation assay was conducted as described in FIG. 1. […] For the experiments shown in FIG. 2B, naive CD4^+ T cells were mixed with CD4^+ Treg cells in anti-CD3 antibody-coated 96-wells with 200 μl of medium containing Poly-A10 (SEQ ID NO: 7), Poly-T10 (SEQ ID NO: 9) or Poly-C10 (SEQ ID NO: 8), while the Poly-G10 (SEQ ID NO: 6) oligonucleotides served as a positive control.
A series of oligonucleotides with decreasing numbers of guanosine nucleosides was constructed to determine the minimal number required for the reversal effect. For the experiments in FIG. 2C, CD4^+ T cells were mixed with CD4^+ Treg cells in anti-CD3 antibody-coated 96-wells containing medium with protected phosphorothioate linked guanosine nucleoside containing oligonucleotides of various lengths, while the unprotected five guanosines (SEQ ID NO: 10) served as a control.
As for “G5: unprotected five guanosines with a regular phosphodiester backbone (DNA GGGGG; unmodified DNA)”, the “reversal of Treg cell-mediated suppression of naive CD4+ T cell proliferation” value (“reversal … of naive CD4+ T cell proliferation” for short) is “failed to reverse the suppressive activity of Treg cells”. For “CpG-B: CpG-B oligonucleotide, ligand for TLR9 (DNA GGGGGAGCATGCTGCGGGGG; listed as DNA, chemistry not given here)”, the “reversal … of naive CD4+ T cell proliferation” value was “failure”. The same measure, in the same setting: then “Poly-A10: Poly-A oligonucleotide with the same protected phosphorothioate backbone (DNA dA*dA*dA*dA*dA*dA*dA*dA*dA*dA)”, with “failed to reverse the suppressive function of Treg cells; also recorded: lacked the ability to reverse the suppressive activity of Treg cells”. On the same count and under the same terms, to TNF-α belongs “failure”.

As for “T4G1: a single guanosine plus other nucleotides with protected phosphorothioate linkages (DNA dT*dT*dG*dT*dT)”, the “reversal … of naive CD4+ T cell proliferation” value is reported as “found to reverse the suppressive activity of Treg cells”. For “A4G1: a single guanosine plus other nucleotides with protected phosphorothioate linkages (DNA dA*dA*dG*dA*dA)”, the “reversal … of naive CD4+ T cell proliferation” value is “found to reverse the suppressive activity of Treg cells”. For the molecule “C4G1: a single guanosine plus other nucleotides with protected phosphorothioate linkages (DNA dC*dC*dG*dC*dC)”, the “reversal … of naive CD4+ T cell proliferation” value is “found to reverse the suppressive activity of Treg cells”. Take “Poly-C10: Poly-C oligonucleotide with the same protected phosphorothioate backbone (DNA dC*dC*dC*dC*dC*dC*dC*dC*dC*dC)”: the “reversal … of naive CD4+ T cell proliferation” value is recorded as “failed to reverse the suppressive function of Treg cells; also recorded: lacked the ability to reverse the suppressive activity of Treg cells”. Regarding “CpG-NG: oligonucleotide derived from CpG-A, tested to define the sequences responsible for reversal (DNA AAAAGACGATCGTCAAAAAA; listed as DNA, chemistry not given here)”, the “reversal … of naive CD4+ T cell proliferation” value is “Treg suppression reversal was lost”.

The next data set relates to antigen-specific Treg102 and Treg164 cells. Put plainly: TLR ligand assays: reversal of Treg suppression of naive CD4+ T cell proliferation. Format: cell-based, human. Conditions: Treg102, Treg164 or naturally occurring CD4+CD25+ Treg cells (FIG. 4A-B). As to the method:
Näive CD4 T+cells were purified from PBMCs by using microbeads (Miltenvi Biotec). Näive CD4^+ T cells ([…]) were cultured with regulatory T cells at a ratio of 10:1 in OKT3 (2 ug/ml)-coated, U bottomed 96-well plates containing the following ligands: LPS (100 ng/ml), imiquimod (10 μg/ml), loxoribine (500 μM), poly(I:C) (25 μg/ml), ssRNA40/LyoVec (3 μg/ml), ssRNA33/LyoVec (3 μg/ml), pam3CSK4 (200 ng/ml) and flagellin (10 μg/ml) were purchased from Invivogene (San Diego, Calif.), while CpG-A (3 μg/ml), CpG-B (3 μg/ml) and Poly-G oligonucleotides (3 μg/ml) were synthesized in Integrated DNA Technologies, Inc (Coralville, Iowa). Functional assays were identical to those described above.
If the TLR8-MyD88-IRAK4 signaling pathway is necessary and sufficient for direct reversal of the suppressive function of Treg cells, it should be possible to produce that effect with natural ligands for human TLR8. For FIG. 4A-B, naive CD4^+ T cells were mixed with Treg102, Treg164 or naturally occurring CD4^+ CD25^+ Treg cells in anti-CD3 antibody-coated wells in the presence of different TLR ligands. Data are presented as means±SD and represent results from three independent experiments.
Take “CpG-B: CpG-B oligonucleotide, ligand for TLR9 (DNA GGGGGAGCATGCTGCGGGGG; listed as DNA, chemistry not given here)”: the “restoration of proliferation of naive CD4+ T cells in the presence of Treg cells” value (from here on “restoration”) was “failed to restore the proliferation of naive CD4^+ T cells”. As for flagellin, the “restoration” value is given as “failed to restore the proliferation of naive CD4^+ T cells”. On to poly(I:C), for which the “restoration” value is “failed to restore the proliferation of naive CD4^+ T cells”. Still for that read-out and setting: then `C=CCn1c(=O)n([C@@H]2O[C@H](CO)[C@@H](O)[C@H]2O)c2nc(N)[nH]c(=O)c21` [loxoribine], with “failed to restore the proliferation of naive CD4^+ T cells”.
